In the assay the target is T1, hFASN enzyme (full length) (Homo sapiens, UniProt P49327).
T1 construct: 10 μL hFASN enzyme (full length, 300 ng, purified in house); made in house
The assay is described as follows: Fatty Acid Synthase (FASN) inhibition scintillation proximity assay. It is filed as biochemical. Particulars: for inhibition at 10 µM: read-out: Human FASN % inhibition @ 10 μM, 10 μM test compound; for IC50: read-out: Human FASN pIC50 (converted). The gist of the method: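 Proximity read-out: hydrophobic ^3H-palmitate formed from ^3H-acetyl-CoA and malonyl-CoA binds streptavidin imaging beads, imaged at 610±20 nm at least 24 h after stopping. Enzyme was in-house purified full-length hFASN, 300 ng, in pH 7.5 phosphate/DTT buffer; compound series 30 μM down to 0.01 μM, normalized to controls, 4-parameter fit.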

This note sets out measurements from US10077261B2, “Imidazolin-5-one derivative useful as FASN inhibitors for the treatment of cancer” (Janssen Pharmaceutica NV, priority 2012, dated 2018).

T1 sequence (P49327 whole entry): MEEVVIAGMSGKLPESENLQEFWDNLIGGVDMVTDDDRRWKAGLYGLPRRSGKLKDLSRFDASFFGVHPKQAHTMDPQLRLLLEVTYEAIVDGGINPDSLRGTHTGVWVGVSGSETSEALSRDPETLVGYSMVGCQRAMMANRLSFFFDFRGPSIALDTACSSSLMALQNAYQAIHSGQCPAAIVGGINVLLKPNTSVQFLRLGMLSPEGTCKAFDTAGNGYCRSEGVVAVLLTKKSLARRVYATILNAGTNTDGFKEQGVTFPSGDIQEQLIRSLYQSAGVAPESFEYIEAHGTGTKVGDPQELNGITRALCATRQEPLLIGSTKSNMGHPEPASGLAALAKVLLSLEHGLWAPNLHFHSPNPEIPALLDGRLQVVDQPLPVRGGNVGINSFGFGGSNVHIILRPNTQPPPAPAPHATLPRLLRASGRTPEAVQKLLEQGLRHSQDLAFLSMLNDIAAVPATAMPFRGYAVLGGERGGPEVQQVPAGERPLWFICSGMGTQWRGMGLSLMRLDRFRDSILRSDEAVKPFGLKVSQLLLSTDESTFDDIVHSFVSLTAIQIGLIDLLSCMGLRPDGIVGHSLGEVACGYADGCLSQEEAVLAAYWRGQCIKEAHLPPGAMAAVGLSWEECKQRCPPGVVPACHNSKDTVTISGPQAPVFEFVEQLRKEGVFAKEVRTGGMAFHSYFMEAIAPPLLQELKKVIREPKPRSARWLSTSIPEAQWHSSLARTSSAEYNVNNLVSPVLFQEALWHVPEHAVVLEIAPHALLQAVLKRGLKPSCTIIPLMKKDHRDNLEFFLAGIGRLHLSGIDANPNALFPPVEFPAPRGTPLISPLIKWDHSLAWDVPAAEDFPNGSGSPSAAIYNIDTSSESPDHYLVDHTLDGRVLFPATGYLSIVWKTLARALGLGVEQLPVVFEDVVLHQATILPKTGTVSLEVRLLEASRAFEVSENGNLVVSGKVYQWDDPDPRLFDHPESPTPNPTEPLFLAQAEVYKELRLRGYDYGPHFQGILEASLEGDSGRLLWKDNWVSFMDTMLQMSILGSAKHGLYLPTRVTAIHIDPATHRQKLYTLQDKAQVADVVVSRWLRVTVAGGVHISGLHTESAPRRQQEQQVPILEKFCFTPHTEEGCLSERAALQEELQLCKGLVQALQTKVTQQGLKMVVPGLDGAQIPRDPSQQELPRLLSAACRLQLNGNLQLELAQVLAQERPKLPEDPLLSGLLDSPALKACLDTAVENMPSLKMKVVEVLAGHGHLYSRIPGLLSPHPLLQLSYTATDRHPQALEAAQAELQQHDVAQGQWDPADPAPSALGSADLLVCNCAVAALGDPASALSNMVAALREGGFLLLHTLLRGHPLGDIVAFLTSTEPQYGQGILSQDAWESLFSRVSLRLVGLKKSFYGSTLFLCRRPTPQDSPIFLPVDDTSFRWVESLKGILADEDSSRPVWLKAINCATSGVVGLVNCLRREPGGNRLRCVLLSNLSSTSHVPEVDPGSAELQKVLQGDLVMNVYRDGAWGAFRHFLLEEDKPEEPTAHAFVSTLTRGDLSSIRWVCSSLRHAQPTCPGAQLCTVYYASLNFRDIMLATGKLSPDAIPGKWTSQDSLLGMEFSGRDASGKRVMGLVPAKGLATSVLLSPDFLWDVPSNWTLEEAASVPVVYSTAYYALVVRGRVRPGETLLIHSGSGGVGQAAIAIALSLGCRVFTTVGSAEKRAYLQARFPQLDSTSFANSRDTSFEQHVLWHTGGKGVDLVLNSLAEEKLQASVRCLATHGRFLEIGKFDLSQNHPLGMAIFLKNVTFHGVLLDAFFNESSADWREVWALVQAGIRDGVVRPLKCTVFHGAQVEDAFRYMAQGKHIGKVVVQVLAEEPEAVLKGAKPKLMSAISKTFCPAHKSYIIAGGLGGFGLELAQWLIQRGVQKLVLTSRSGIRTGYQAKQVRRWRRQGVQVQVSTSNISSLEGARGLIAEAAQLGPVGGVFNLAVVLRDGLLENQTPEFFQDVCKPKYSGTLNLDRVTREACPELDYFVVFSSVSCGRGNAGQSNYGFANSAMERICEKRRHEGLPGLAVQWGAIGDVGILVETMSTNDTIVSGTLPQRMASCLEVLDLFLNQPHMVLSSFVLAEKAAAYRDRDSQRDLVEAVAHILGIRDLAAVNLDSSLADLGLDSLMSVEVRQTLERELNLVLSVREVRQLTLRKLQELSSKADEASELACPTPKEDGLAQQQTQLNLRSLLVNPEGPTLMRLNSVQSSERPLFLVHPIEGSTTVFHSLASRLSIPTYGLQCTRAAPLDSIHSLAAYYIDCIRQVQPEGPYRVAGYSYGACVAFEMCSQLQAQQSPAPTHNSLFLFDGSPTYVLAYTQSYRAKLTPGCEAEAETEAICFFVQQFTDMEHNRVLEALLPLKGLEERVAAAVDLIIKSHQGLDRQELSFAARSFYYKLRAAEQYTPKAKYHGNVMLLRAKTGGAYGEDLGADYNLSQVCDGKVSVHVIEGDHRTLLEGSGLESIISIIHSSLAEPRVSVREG

For `N#CC1(C(=O)N2CC[C@@H](CN3C(=O)C4(CCCC4)N=C3c3ccc(-c4ccc5occc5c4)cc3)C2)CC1` [compound 192, 1-{[(3R)-3-({2-[4-(1-Benzofuran-5-yl)phenyl]-4-oxo-1,3-diazaspiro[4.4]non-1-en-3-yl}methyl)pyrrolidin-1-yl]carbonyl}cyclopropancarbonitrile], the inhibition at 10 µM is 94.3% and the IC50 is 0.589 µM.

As for `O=C(C1CC1)N1CCC[C@@H](CN2C(=O)C3(CC3)N=C2c2ccc(-c3ccc4[nH]ncc4c3)cc2)C1` [compound 389, 6-{[(3R)-1-(Cyclopropylcarbonyl)piperidin-3-yl]methyl}-5-[4-(1H-indazol-5-yl)phenyl]-4,6-diazaspiro[2.4]hept-4-en-7-one], the inhibition at 10 µM came to 56% and the IC50 is 7.24 µM.

Take `Cc1cc(C2=NC3(CC3)C(=O)N2CC2CN(C(=O)C3CC3)C2)ccc1-c1ccc2occc2c1` [compound 393, 5-[4-(1-Benzofuran-5-yl)-3-methylphenyl]-6-{[1-(cyclopropylcarbonyl)azetidin-3-yl]methyl}-4,6-diazaspiro[2.4]hept-4-en-7-one]: the inhibition at 10 µM is 62% and the IC50 was approximately 2.88 µM.

Consider `O=C(C1CC1)N1CCC[C@@H](CN2C(=O)C3(CC3)N=C2c2ccc(-c3ccc4sccc4c3)cc2)C1` [compound 394, 5-[4-(1-Benzothiophen-5-yl)phenyl]-6-{[(3R)-1-(cyclopropylcarbonyl)piperidin-3-yl]methyl}-4,6-diazaspiro[2.4]hept-4-en-7-one], for which the inhibition at 10 µM turned out to be 84% and the IC50 is 1.07 µM.

In the case of `O=C(C1CC1)N1CCC[C@@H](CN2C(=O)C3(CC3)N=C2c2ccc(-c3ccc4occc4c3)cc2)C1` [compound 395, 5-[4-(1-Benzofuran-5-yl)phenyl]-6-{[(3R)-1-(cyclopropylcarbonyl)piperidin-3-yl]methyl}-4,6-diazaspiro[2.4]hept-4-en-7-one], the inhibition at 10 µM is 54% and the IC50 was 6.31 µM.

As to `COC(=O)c1cccc(-c2ccc(C3=NC4(CC4)C(=O)N3C[C@@H]3CCN(C(=O)C4CC4)C3)cc2)c1` [compound 401, Methyl 4′-(6-{[(3R)-1-(cyclopropylcarbonyl)pyrrolidin-3-yl]methyl}-7-oxo-4,6-diazaspiro[2.4]hept-4-en-5-yl)biphenyl-3-carboxylate], the inhibition at 10 µM came to 70% and the IC50 was 3.72 µM.

For the compound `Cn1nccc1-c1ccc(-c2ccc(C3=NC4(CC4)C(=O)N3C[C@@H]3CCN(C(=O)C4CC4)C3)cc2)cc1` [compound 407, 6-{[(3R)-1-(Cyclopropylcarbonyl)pyrrolidin-3-yl]methyl}-5-[4′-(1-methyl-1H-pyrazol-5-yl)biphenyl-4-yl]-4,6-diazaspiro[2.4]hept-4-en-7-one], the inhibition at 10 µM was 69% and the IC50 is 2.34 µM.

Regarding `O=C(C1CC1)N1CC[C@H](CN2C(=O)C3(CC3)N=C2c2ccc(-c3ccc(O)cc3)cc2)C1` [compound 408, 6-{[(3S)-1-(Cyclopropylcarbonyl)pyrrolidin-3-yl]methyl}-5-(4′-hydroxybiphenyl-4-yl)-4,6-diazaspiro[2.4]hept-4-en-7-one], the inhibition at 10 µM worked out at 63% and the IC50 is 5.13 µM.

On to `O=C(C1CC1)N1CC(CN2C(=O)C3(CC3)N=C2c2ccc(-c3ccc4occc4c3)c(F)c2)C1` [compound 415], for which the inhibition at 10 µM turned out to be 80% and the IC50 was 1.26 µM.

With `Cc1cc2cc(-c3ccc(C4=NC5(CC5)C(=O)N4CC4CN(C(=O)C5CC5)C4)cc3F)ccc2o1` [compound 416, 6-{[1-(Cyclopropylcarbonyl)azetidin-3-yl]methyl}-5-[3-fluoro-4-(2-methyl-1-benzofuran-5-yl)phenyl]-4,6-diazaspiro[2.4]hept-4-en-7-one], the inhibition at 10 µM is 76% and the IC50 was approximately 1.78 µM.

Turning to `Cc1oc2ccc(-c3ccc(C4=NC5(CC5)C(=O)N4CC4CN(C(=O)C5CC5)C4)cc3F)cc2c1C` [compound 417, 6-{[1-(Cyclopropylcarbonyl)azetidin-3-yl]methyl}-5-[4-(2,3-dimethyl-1-benzofuran-5-yl)-3-fluorophenyl]-4,6-diazaspiro[2.4]hept-4-en-7-one], the inhibition at 10 µM amounted to 62% and the IC50 is 5.25 µM.

For `O=C(C1CC1)N1CC[C@@H](CN2C(=O)C3(CC3)N=C2c2ccc(-c3ccc4occc4c3)s2)C1` [compound 422, 5-[5-(1-Benzofuran-5-yl)thiophen-2-yl]-6-{[(3R)-1-(cyclopropylcarbonyl)pyrrolidin-3-yl]methyl}-4,6-diazaspiro[2.4]hept-4-en-7-one], the inhibition at 10 µM is 70% and the IC50 is 3.31 µM.

For `O=C(C1CC1)N1CC[C@@H](CN2C(=O)C3(CC3)N=C2c2ccc(-c3ccc4[nH]ncc4c3)s2)C1` [compound 424, 6-{[(3R)-1-(Cyclopropylcarbonyl)pyrrolidin-3-yl]methyl}-5-[5-(1H-indazol-5-yl)thiophen-2-yl]-4,6-diazaspiro[2.4]hept-4-en-7-one], the inhibition at 10 µM was determined as 68% and the IC50 is 3.98 µM.

For the compound `Cn1ncc2cc(-c3ccc(C4=NC5(CC5)C(=O)N4C[C@@H]4CCN(C(=O)C5CC5)C4)s3)ccc21` [compound 430, 6-{[(3R)-1-(Cyclopropylcarbonyl)pyrrolidin-3-yl]methyl}-5-[5-(1-methyl-1H-indazol-5-yl)thiophen-2-yl]-4,6-diazaspiro[2.4]hept-4-en-7-one], the inhibition at 10 µM was found to be 52%. Also, the “Human FASN pIC50” value (hFASN enzyme, full length, "~" means standard error of the pIC50 is larger than 0.5) worked out at 5.05.

Consider `Cc1cc2cc(-c3ccc(C4=NC5(CC5)C(=O)N4CC4CN(C(=O)C5CC5)C4)cc3F)ccc2s1` [compound 433, 6-{[1-(Cyclopropylcarbonyl)azetidin-3-yl]methyl}-5-[3-fluoro-4-(2-methyl-1-benzothiophen-5-yl)phenyl]-4,6-diazaspiro[2.4]hept-4-en-7-one], for which the inhibition at 10 µM turned out to be 72% and the IC50 is 1.82 µM.

For `Cc1sc2ccc(-c3ccc(C4=NC5(CC5)C(=O)N4CC4CN(C(=O)C5CC5)C4)cc3F)cc2c1C` [compound 434, 6-{[1-(Cyclopropylcarbonyl)azetidin-3-yl]methyl}-5-[4-(2,3-dimethyl-1-benzothiophen-5-yl)-3-fluorophenyl]-4,6-diazaspiro[2.4]hept-4-en-7-one], the inhibition at 10 µM was 73% and the IC50 was 2.04 µM.

`Cc1cc(C2=NC3(CC3)C(=O)N2CC2CN(C(=O)C3CC3)C2)ccc1-c1ccc2c(cnn2C)c1` [compound 436, 6-{[1-(Cyclopropylcarbonyl)azetidin-3-yl]methyl}-5-[3-methyl-4-(1-methyl-1H-indazol-5-yl)phenyl]-4,6-diazaspiro[2.4]hept-4-en-7-one]: the inhibition at 10 µM was 43% and the IC50 is approximately 10 µM.

On to `O=C(C1CC1)N1CC[C@@H](CN2C(=O)C3(CC3)N=C2c2ncc(-c3ccc4occc4c3)cn2)C1` [compound 437, 5-[5-(1-Benzofuran-5-yl)pyrimidin-2-yl]-6-{[(3R)-1-(cyclopropylcarbonyl)pyrrolidin-3-yl]methyl}-4,6-diazaspiro[2.4]hept-4-en-7-one], for which the inhibition at 10 µM was determined as 72% and the IC50 was 2.75 µM.

In the case of `Cn1ncc2cc(-c3cnc(C4=NC5(CC5)C(=O)N4C[C@@H]4CCN(C(=O)C5CC5)C4)nc3)ccc21` [compound 438, 6-{[(3R)-1-(Cyclopropylcarbonyl)pyrrolidin-3-yl]methyl}-5-[5-(1-methyl-1H-indazol-5-yl)pyrimidin-2-yl]-4,6-diazaspiro[2.4]hept-4-en-7-one], the inhibition at 10 µM turned out to be 65% and the IC50 was 3.31 µM.

As to `O=C(C1CC1)N1CC[C@@H](CN2C(=O)C3(CC3)N=C2c2cnc(-c3ccc4occc4c3)cn2)C1` [compound 439, 5-[5-(1-Benzofuran-5-yl)pyrazin-2-yl]-6-{[(3R)-1-(cyclopropylcarbonyl)pyrrolidin-3-yl]methyl}-4,6-diazaspiro[2.4]hept-4-en-7-one], the inhibition at 10 µM was 48% and the IC50 was 9.55 µM.

Regarding `Cn1ncc2cc(-c3ccc(C4=NC5(CC5)C(=O)N4CC4CN(C(=O)C5CC5)C4)cc3F)ccc21` [compound 441, 6-{[1-(Cyclopropylcarbonyl)azetidin-3-yl]methyl}-5-[3-fluoro-4-(1-methyl-1H-indazol-5-yl)phenyl]-4,6-diazaspiro[2.4]hept-4-en-7-one], the inhibition at 10 µM is 63% and the IC50 is 3.98 µM.

As to `Cc1cc2cc(-c3ccc(C4=NC5(CC5)C(=O)N4CC4CN(C(=O)C5CC5)C4)cc3C)ccc2s1` [compound 446, 6-{[1-(Cyclopropylcarbonyl)azetidin-3-yl]methyl}-5-[3-methyl-4-(2-methyl-1-benzothiophen-5-yl)phenyl]-4,6-diazaspiro[2.4]hept-4-en-7-one], the inhibition at 10 µM came out at 60% and the IC50 was 5.01 µM.

In the case of `Cc1cc(C2=NC3(CC3)C(=O)N2CC2CN(C(=O)C3CC3)C2)ccc1-c1ccc2sc(C)c(C)c2c1` [compound 447, 6-{[1-(Cyclopropylcarbonyl)azetidin-3-yl]methyl}-5-[4-(2,3-dimethyl-1-benzothiophen-5-yl)-3-methylphenyl]-4,6-diazaspiro[2.4]hept-4-en-7-one], the inhibition at 10 µM came out at 79% and the IC50 was 1.2 µM.

`Cc1cc(C2=NC3(CC3)C(=O)N2CC2CN(C(=O)C3CC3)C2)ccc1-c1ccc2[nH]ncc2c1` [compound 448, 6-{[1-(Cyclopropylcarbonyl)azetidin-3-yl]methyl}-5-[4-(1H-indazol-5-yl)-3-methylphenyl]-4,6-diazaspiro[2.4]hept-4-en-7-one]: the inhibition at 10 µM is 50% and the IC50 was 8.51 µM.
